Like-named read-outs stand apart in the source and are kept apart here.
Legend:
[1] = tested on: porcine sclera; conditions: 200 mM, pH 5.0, 37° C., 30 hours
Description: (§1) Adult porcine eyes were obtained within 12 hours of sacrifice and submerged in a solution of either 200 mM NaNO2 or 200 mM NaCl buffered with 200 mM NaH2PO4/Na2HPO4 (pH 5.0). Penicillin/Streptomycin was added (10 μl/ml) to prevent bacterial overgrowth. After 30 hours of incubation at 37° C., the corneas were excised at the limbus and photographed.

[2] = 4° C.
Description: Adult porcine eyes were obtained within 12 hours of. sacrifice and submerged in solutions of 0, 10, 100 mM NaNO2 and 100 mM NaCl buffered with 50 mM NaH2PO4/Na2HPO4 (pH 7.4) following bubbling with 99% Argon/1% O2 in order to limit the amount of potential nitrite auto-oxidation caused by oxygen. Penicillin/Streptomycin was added (10 μl/ml) to prevent bacterial overgrowth. After 24 hours of incubation at 4° C., the aqueous humor was sampled for nitrite concentration using a modification of the Greiss colorimetric assay.
Adult porcine eyes were obtained within 12 hrs of sacrifice and submerged in solutions of 0, 10, 100 mM NaNO2 and 100 mM NaCl buffered with 50 mM NaH2PO4/Na2HPO4 (pH 7.4) following bubbling with 100% Argon in order to limit the amount of potential nitrite auto-oxidation caused by oxygen. Penicillin/Streptomycin was added (10 ul/ml) to prevent bacterial overgrowth. After 24 hrs of incubation at 4° C., the aqueous humor was sampled for nitrite concentration using a modification of the Greiss colorimetric assay.

[3] = tested on: ARPE-19 cells
Text: A cytotoxicity study was undertaken to obtain an impression of the level of cellular tolerance to these compounds. For pilot experiments ARPE-19 cells were used. This is an immortal human retinal pigment epithelial cell line commonly used for experiments related to macular degeneration. In these pilot studies, the ARPE-19 cells serve as a surrogate for cytotoxicity experiments. Primary cultures of bovine corneal endothelial cells were also used in the cytotoxicity studies described. Bovine corneal cells have more direct relevance for evaluating potential cytotoxic effects during cross-linking of living eye tissue.
ARPE-19 cells were grown to 80% confluence in 96 well tissue culture plates. The cells were then exposed to varying concentrations of NaNO2 and 2-nitroethanol in their culture medium and evaluated for cell death using trypan blue (TB) staining (0.4% for 5 min) after 24 hrs.

[4] = tested on: fibroblast-populated collagen gels; conditions: 100 mM; pretreatment pH 4.0 24 hours and posttreatment pH 7.4 seven days
Description: Biaxial mechanical properties of the collagen gels were examined by performing equibiaxial load controlled experiments after 72 hours of culture for pretreated and 10 days of culture for posttreated collagen gels. To perform the planar biaxial mechanical test, the loading frame was first removed and the gels were floated to the top of their Petri dish using standard media (DMEM with 10% FBS and antibiotics) at 37° C. Gels were loaded by applying equal weights on all sides of the gel simultaneously (equibiaxial loading). First, gels were preconditioned by cyclically applying and removing 1 gram weights on all sides. […] One prominent feature of the preconditioning response in these gels is that the gels undergo some permanent deformation, not relaxing back to their initial dimensions even when fully unloaded.
The magnitude of the permanent deformation associated with preconditioning was quantified by computing the associated strain (E^P11, E^P22) using the unloaded configuration of the gel at the beginning of the mechanical test as the reference state and the new, stable unloaded state achieved at the end of preconditioning as the deformed state. After preconditioning, calibrated weights from 0 to 1000 mg are applied equibiaxially in 100 mg increments. Images of the gel surface are taken 30 seconds after each load application or removal, and the strains associated with each load were computed relative to the preconditioned unloaded reference state at the beginning of the loading run.
The impact of sodium nitrite on vertical deformation of uniaxially constrained gels was measured during each phase of the experiment.
Initially square fibroblast-populated collagen gels were cast and allowed to polymerize for 2 hrs. Markers were painted on the gel surface to allow tracking of deformation in the central region during the remainder of the experiment. […] At 72 hrs, the gel was mechanically tested. […] Then, the gel was loaded in a series of smaller steps and the response quantified (loading phase).

[5] = tested on: porcine cornea; conditions: 200 mM, pH 5.0, 37° C.
Description: as §1
After 30 and 80 hours of incubation at 37° C., the corneas were excised at the limbus and subjected to shrinkage temperature (thermal denaturation) analysis. The intact cornea was heated in 2° C. increments every 5 minutes using a digitally controlled water bath. The maximal dimensions in the long and short axis were measured using a micrometer under visualization with an operating microscope. The percentage of tissue shrinkage was then estimated by using 2 dimensional area calculations from the micrometer readings.

[6] = tested on: porcine cornea; test: Gross stiffness of porcine corneal strips handled with a forceps; conditions: 100 mM, pH 7.4, 37° C., 48 hrs
Description: Fresh porcine corneal strips and corneoscleral complexes obtained within 6 hrs of sacrifice and incubated at 37° C. in buffered solutions (pH 7.4) containing 20% Dextran (T500) and either 100 mM NaNO2 or 100 mM of one each of the specified β-nitro alcohols
These images were taken from tissues cross-linked with nitrite and the β-nitro alcohols 2-nitroethanol, 2-nitro-1-propanol, and […], for 48 hrs. […] Fresh porcine corneal strips and corneoscleral complexes were obtained within 6 hrs of sacrifice and incubated at 37° C. in buffered solutions (pH 7.4) containing 20% Dextran (T500) and either 100 mM NaNO2 or 100 mM of one each of the β-nitro alcohols. After 48 hrs, the following images were obtained. […] FIGS. 13 (B and D)

[7] = tested on: porcine cornea; conditions: 200 mM, pH 5.0, 37° C., 30 hours
Description: as §1

[8] = tested on: porcine sclera; test: Thermal shrinkage temperature analysis of porcine scleral strips
Text: Thermal shrinkage temperature or denaturation temperature (Ts) is a technique that has been used for decades in studying collagen cross-linking. As collagen fibers are progressively heated, a threshold temperature is reached at which point disruption of hydrogen bonding in the collagen molecule triple helix occurs, resulting in unwinding of the triple helices. The denaturation of tertiary protein structure results in a rapid shrinkage of the tissue of up to 80%. This phenomenon can be expressed in various ways including temperature of onset of tissue shrinkage, temperature at maximal tissue shrinkage, and temperature at 50% of maximal tissue shrinkage, for example. In addition, differential scanning calorimetry (DSC) is related to thermal shrinkage temperature analysis and is widely used to evaluate biomaterial cross-linking. Thermal shrinkage temperature is essentially a simplified version of DSC and can be used effectively to screen the cross-linking efficacy of compounds. For the purposes of this study, the onset of shrinkage is considered the Ts and the temperature at which 50% of maximal shrinkage has occurred is T50. Graphs depicting the relationship between degree of shrinkage and temperature indicate differences in degree of cross-linking between groups. Thus, stabilization of collagen fiber structures through non-enzymatic cross-linking increases Ts and T50.
This system can perform multiple Ts assays in succession, allowing rapid screening of a number of potential cross-linking agents and conditions. […] Inlet and outlet fittings allow for constant circulation of heated water which is modulated by a digitally controlled water bath equipped with a water pump. The entire box is placed on a digital photo scanner connected to a Windows based computer. Beginning at 50° C. the temperature is raised at a rate of 1° C./min and serial scans are taken at every degree increase in temperature up to 80° C. […] As the tissue shrinks, the images are captured by the scanner. The image files are later analyzed for 2-dimensional area using NIH Image J software and % shrinkage calculations are made using Microsoft Excel for graphing purposes. This method obviates the need for removal of tissue pieces from the water bath with manual micrometer measurements as described by the UVR group (Spoerl, E., et al., 2004).
Using this simple, reproducible assay enables the screening of a number of compounds for cross-linking efficacy. This is first performed using porcine eyes because of their low cost. Follow up studies can be performed using human eyes. Porcine eyes are obtained within 6 hrs of sacrifice (Hatfield Meat Packing, Inc., Hatfield Pa.). Eyes showing clear corneas and intact epithelia are chosen for study. […] Each strip is then cross-linked using a nitro agent. […] Opthalmol. 1999; 117:166-169) for 24-96 hrs. Following incubation, the samples are evaluated for degree of cross-linking using the Ts assay as described above.
From the data, Ts curves are generated for each compound and condition studied. Each data point is the average of 3 independent samples.

[9] = molecular target: type I collagen (Bos taurus, UniProt P02453+P02465); conditions: 7 day incubation, pH 7.4, 4° C.
Chain of type I collagen (P02453 162-1217 limits assumed): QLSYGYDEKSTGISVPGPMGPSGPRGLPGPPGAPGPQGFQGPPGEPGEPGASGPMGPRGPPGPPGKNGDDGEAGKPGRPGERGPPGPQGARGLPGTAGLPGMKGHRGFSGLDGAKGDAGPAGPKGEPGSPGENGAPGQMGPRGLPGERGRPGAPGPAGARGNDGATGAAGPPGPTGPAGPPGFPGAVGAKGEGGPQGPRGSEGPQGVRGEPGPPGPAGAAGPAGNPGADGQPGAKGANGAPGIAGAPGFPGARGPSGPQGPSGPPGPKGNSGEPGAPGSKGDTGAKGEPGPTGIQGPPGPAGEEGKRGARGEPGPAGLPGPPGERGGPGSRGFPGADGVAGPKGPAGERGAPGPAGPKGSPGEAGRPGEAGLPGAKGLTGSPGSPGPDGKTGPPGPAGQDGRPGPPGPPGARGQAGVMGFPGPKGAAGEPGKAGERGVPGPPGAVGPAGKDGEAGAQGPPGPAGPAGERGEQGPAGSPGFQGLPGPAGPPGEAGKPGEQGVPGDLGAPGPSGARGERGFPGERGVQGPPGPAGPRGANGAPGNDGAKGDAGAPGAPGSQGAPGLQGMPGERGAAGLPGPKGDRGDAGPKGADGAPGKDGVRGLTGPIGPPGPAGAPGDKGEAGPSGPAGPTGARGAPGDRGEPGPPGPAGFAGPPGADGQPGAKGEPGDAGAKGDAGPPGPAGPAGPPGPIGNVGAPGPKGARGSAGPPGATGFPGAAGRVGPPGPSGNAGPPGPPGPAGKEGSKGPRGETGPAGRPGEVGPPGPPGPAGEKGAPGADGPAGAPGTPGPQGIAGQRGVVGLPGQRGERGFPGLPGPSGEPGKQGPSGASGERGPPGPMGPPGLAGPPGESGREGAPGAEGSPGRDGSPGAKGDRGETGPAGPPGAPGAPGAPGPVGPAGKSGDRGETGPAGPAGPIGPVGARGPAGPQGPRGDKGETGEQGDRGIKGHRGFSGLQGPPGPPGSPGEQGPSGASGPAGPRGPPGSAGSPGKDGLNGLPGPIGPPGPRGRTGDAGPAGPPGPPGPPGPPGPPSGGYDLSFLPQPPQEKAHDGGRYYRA
Chain of type I collagen (P02465 80-1117 limits assumed): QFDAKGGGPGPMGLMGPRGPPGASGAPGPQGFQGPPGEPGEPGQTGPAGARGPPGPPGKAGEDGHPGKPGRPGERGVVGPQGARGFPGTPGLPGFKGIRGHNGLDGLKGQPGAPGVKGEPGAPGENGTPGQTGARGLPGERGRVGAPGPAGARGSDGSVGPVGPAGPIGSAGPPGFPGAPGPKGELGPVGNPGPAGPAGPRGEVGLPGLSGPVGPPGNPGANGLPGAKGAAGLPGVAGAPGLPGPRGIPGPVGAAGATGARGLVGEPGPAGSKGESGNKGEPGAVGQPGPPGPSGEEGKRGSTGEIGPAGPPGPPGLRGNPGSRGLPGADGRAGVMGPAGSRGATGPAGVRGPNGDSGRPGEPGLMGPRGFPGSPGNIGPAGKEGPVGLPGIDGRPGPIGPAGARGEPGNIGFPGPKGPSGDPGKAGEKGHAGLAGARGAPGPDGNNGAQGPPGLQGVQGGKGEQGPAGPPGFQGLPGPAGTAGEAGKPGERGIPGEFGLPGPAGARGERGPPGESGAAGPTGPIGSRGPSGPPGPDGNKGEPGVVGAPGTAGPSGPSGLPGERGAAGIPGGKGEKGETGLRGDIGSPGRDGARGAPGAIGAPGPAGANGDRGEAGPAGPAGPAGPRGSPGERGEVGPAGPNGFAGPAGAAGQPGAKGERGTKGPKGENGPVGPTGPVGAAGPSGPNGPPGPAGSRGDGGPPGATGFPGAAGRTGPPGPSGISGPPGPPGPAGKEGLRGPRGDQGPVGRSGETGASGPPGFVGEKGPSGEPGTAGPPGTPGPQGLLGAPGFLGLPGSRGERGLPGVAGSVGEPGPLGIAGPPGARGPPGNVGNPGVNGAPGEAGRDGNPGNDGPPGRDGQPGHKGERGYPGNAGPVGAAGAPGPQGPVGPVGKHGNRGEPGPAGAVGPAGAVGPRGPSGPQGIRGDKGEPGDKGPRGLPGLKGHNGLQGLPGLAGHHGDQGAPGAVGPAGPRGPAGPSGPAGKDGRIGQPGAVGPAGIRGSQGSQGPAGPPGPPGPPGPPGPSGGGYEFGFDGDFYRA
Description: Samples of pepsin-solubilized, bovine skin collagen type I (Purecol, 3 mg/ml, Inamed Corporation, Fremont, Calif., USA) dissolved in 0.012N HCl were spiked with dH2O containing 1M NaNO2 or NaCl concentration to obtain final concentrations of 0 mM, 10 mM, 100 mM NaNO2, and 100 mM NaCl. […] These conditions were identical to those used in the preincubation treatment of collagen for biomechanical testing. Following a 24 hour incubation (4° C.), an aliquot from each sample was added into SDS-PAGE sample buffer (Biorad) in a ratio of 1:2 (sample:sample buffer), reduced by heating at 100° C. for 5 minutes with dithiothreitol (DTT), and analyzed by SDS-PAGE. The separating gel was 5% acrylamide and stacking gel 4%. Equivalent quantities of protein (6 μg per lane) were loaded onto separate wells. The samples were run at 25 volts for approximately 3.5 hours, which was the time necessary for the dye front to leave the bottom of the gel. The gels were then stained with Coomasie blue solution for no less than 3 hours. Following destaining, the gels were digitally photographed for densitometric analysis, which was carried out using the Un-Scan-it software program version 4.1 (Silk Scientific Corp). […]

[10] = tested on: corneal endothelial cell; conditions: 3 hrs exposure, rabbit organ culture, electron microscopy, Green 1977; cited from earlier work
[11] = Solubility in water; assay type: physicochemical
[12] = NaNO2 100 mM pH 3 with 1 mM urea
[13] = NaNO2 100 mM pH 3 with 10 mM urea
[14] = NaNO2 100 mM pH 3 with 100 mM urea
[15] = 100 mM, 1% DMSO, pH 7.4, 96 hrs

Molecule: O=N[O-].[Na+] [NaNO2, sodium nitrite]
- contour changes in sclera samples [1]: dramatic contour changes
- Nitrite concentration in the aqueous humor, of the incubation fluid ([2]; 10 mM NaNO2, pH 7.4, 24 hours): 35.5%
- Nitrite concentration in the aqueous humor, of the incubation fluid ([2]; 100 mM NaNO2, pH 7.4, 24 hours): 62.8%
- tolerable level relative to genipin [3]: at least 100 ×
- tolerance by cells (trypan blue) ([3]; 100 mM, 24 hrs): tolerated by cells
- highest tolerated level ([3]; ARPE-19): 100 mM
- vertical deformation associated with preconditioning [4]: reduced vertical deformation associated with preconditioning
- vertical deformation at 1 g equibiaxial load [4]: reduced vertical deformation at 1 g equibiaxial load
- vertical remodeling [4]: reduced vertical remodeling
- increase of onset of tissue shrinkage ([5]; 30 hours of treatment): approximately 4 °C
- increase of onset of tissue shrinkage ([5]; 80 hours of treatment): ~8 °C
- stiffness change when handled with a forceps [6]: intermediate effect
- contour changes in the corneas [7]: Dramatic contour changes
- blocking of the cross-linking effect by equimolar urea [8]: unable to block
- T50 ([8]; 100 mM, pH 3, 96 hrs): 69.3 °C
- T50 Δ ([8]; 100 mM, pH 3, 96 hrs): 4.0 °C
- T50 ([8]; 100 mM, pH 5, 96 hrs): 67.3 °C
- T50 Δ ([8]; 100 mM, pH 5, 96 hrs): 2.0 °C
- T50 [8, 12]: 70.1 °C
- T50 Δ [8, 12]: 4.8 °C
- T50 [8, 13]: 69.7 °C
- T50 Δ [8, 13]: 4.4 °C
- T50 [8, 14]: 65.6 °C
- T50 Δ [8, 14]: 0.3 °C
- shifts in Ts (in words) ([8]; pH 3): approximately equal shifts in Ts
- T50 (temperature at 50% of maximal shrinkage) ([8]; pH 7.4): 65.7 °C
- T50 Δ (change in 50% shrinkage temperature compared to control) ([8]; pH 7.4): 0.4 °C
- effect on Ts (in words) ([8]; pH 7.4): no effect
- collagen cross-linking by SDS-PAGE ([9]; 10 mM): No differences are observed
- collagen cross-linking by SDS-PAGE ([9]; 100 mM): cross-linking of collagen primary strands is indicated

Molecule: Benzalkonium chloride
- Toxic concentration [10]: (0.0001%)

Molecule: CC(C)CCON=O [Isopentyl nitrite, isopentyl nitrite, reference compound]
- T50 [8, 15]: 65.4 °C
- T50 Δ [8, 15]: 0.1 °C
- shift in Ts (in words) ([8]; neutral pH, up to 100 mM): did not result in a shift in Ts
- solubility in water [11]: poor solubility in water

Source: patent US8466203B2, “Method of stabilizing human eye tissue by reaction with nitrite and related agents such as nitro compounds” (priority 2006, dated 2013)
